Measured values as given in publication PMC6013267 (Medicinal chemistry research : an international journal for …, 2018).

Experiments:
[1] = target: α4β2* nAChRs (Rattus norvegicus, UniProt P09483+P12390); conditions: 100 nM drug; rat brain slices
[2] = test system: Aβ plaques; assay: [3H]PIB competition autoradiography in postmortem human AD frontal cortex slices; assay type: binding; conditions: for displacement of [3H]PIB (words, discussion): concentration not restated
[3] = test system: amyloid β; conditions: ref Salloway et al. 2014, Doody et al. 2014, Siemers et al. 2016, cited from earlier work
[4] = 10 μM drug, control GM/WM approx. 3

Sequence of α4β2* nAChRs (P09483 31-630): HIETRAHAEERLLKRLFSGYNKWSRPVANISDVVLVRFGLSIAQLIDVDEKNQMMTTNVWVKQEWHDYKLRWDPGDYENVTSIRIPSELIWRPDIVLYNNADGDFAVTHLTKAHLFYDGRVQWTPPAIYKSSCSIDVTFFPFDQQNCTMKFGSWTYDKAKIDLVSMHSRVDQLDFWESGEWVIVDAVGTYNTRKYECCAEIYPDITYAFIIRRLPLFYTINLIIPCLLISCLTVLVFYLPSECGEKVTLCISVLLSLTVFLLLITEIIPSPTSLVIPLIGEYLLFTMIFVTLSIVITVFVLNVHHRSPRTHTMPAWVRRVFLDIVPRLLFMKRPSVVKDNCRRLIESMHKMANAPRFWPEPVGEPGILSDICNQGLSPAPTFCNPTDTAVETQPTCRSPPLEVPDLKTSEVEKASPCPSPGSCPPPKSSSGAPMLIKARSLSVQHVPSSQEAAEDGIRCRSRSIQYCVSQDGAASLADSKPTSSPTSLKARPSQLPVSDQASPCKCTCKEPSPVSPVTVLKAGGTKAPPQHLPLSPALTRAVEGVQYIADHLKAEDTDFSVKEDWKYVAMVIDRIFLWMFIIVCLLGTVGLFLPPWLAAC
Sequence of α4β2* nAChRs (P12390 25-500): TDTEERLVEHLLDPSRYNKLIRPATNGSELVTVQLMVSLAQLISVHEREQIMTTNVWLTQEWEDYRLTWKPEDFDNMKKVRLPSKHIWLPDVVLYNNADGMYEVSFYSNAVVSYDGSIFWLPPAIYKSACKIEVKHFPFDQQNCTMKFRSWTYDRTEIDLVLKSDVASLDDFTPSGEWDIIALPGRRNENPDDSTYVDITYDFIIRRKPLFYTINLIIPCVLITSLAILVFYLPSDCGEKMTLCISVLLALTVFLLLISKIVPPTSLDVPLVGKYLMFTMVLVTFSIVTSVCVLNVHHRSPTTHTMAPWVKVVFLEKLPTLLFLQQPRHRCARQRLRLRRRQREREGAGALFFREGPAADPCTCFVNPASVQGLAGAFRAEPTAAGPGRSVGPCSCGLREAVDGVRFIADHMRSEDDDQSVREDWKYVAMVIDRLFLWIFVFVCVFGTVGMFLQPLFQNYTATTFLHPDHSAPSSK

Row | Compound | effect on [3H]PIB binding ([2]; 1 μM drug) | GM/WM ratio of [3H]PIB binding [2, 4] | displacement of [3H]PIB (words, discussion) [2] | further results
1 | 5-(3′-Ethyl 3-methoxy-4-propyloxycinnamate)-3-(2-(S)-pyrrolidinylmethoxy)pyridine [GKS-006] | – | – | – | displacement of [3H]cytisine [1]: Displacement of significant amounts
2 | COc1cc(/C=C/C(=O)O)ccc1O [FA, ferulic acid] | did not significantly affect the binding of [^3H]PIB | 2 | little displacement | GM/WM ratio of [3H]PIB binding ([2]; 1 μM drug, control GM/WM ~2): ~ 2; [3H]PIB levels in GM and WM ([2]; 10 μM drug): higher levels of [^3H]PIB
3 | 5-(3-methoxy-4-propyloxycinnamate)-3-(2-(S)-pyrrolidinylmethoxy)pyridine [GKS-007] | some inhibitory effect | – | – | GM/WM ratio of [3H]PIB binding ([2]; 1 μM drug, control GM/WM ~2): no significant GM/WM ratio reduction; displacement of [3H]cytisine [1]: Displacement of significant amounts
4 | COc1cc(/C=C/C(=O)CC(=O)/C=C/c2ccc(O)c(OC)c2)ccc1O [CUR, curcumin] | – | 1.5 | significant displacement effect | reduction in GM/WM [3H]PIB binding ([2]; 10 μM drug): 50%
5 | CNc1ccc(N=Nc2ccc(N(C)C)cc2)cc1 [TAZA, 4-methylamino-4'-N,N-dimethylaminoazobenzene] | significant displacement of [^3H]PIB | – | greater than observed by CUR | –
6 | solanezumab: Anti-amyloid β monoclonal antibody | – | – | – | clinical outcome ([3]; mild to moderate AD): Did not improve clinical outcomes. Trials continue in early stage of disease; Aβ plaque load (measured by PET imaging) before and after antibody treatment [3]: did not change significantly
7 | FEX-(3-methoxy-4-(1′-aminobutyryloxy)cinnamic acid [KD-003] | – | 2.4 | – | [3H]PIB levels in GM and WM ([2]; 10 μM drug): higher levels of [^3H]PIB
